Data from patent US5169858A, “Anti-tumor compositions containing the reactive product of benzaldehyde or salicylaldehyde with penicillamine and method of use thereof” (priority 1986, dated 1992).

What was measured:
mouse melanoma cells [1] = experiment: Subcutaneous mouse melanoma, treatment from palpable tumor, 33 mg/kg orally every day; type: in vivo, black mice; settings: 33 mg/kg every day by oral intubation
Procedure: (§1) Thirty-seven black mice were divided into two groups. Group I had 18 mice and was the control group. Group II had 19 mice and was the treated group. Each mouse was innoculated with 100,000 mouse melanoma cells subcutaneously. After the tumor was palpable (after about a week) the control group received saline orally. The treated group got 33 mg/kg of 5,5-dimethyl-2-phenyl-4-thiazolidine carboxylic acid every day by oral intubation. All of the control group died within an average of twenty-three days. The treated group started dying at day 50. The last mouse of the treated group died on day 70. The treated group died from day 50 on at the rate of about one mouse per day. […] Two mice in the treated group survived cured. The tumor disappeared in the two cured mice.

mouse melanoma cells [2] = type: in vivo, black mice
Procedure: as §1
The same experiment was repeated with 20 control mice and 20 mice in the treated group, employing doses of 5,5-dimethyl-2-phenyl-4-thiazolidine carboxylic acid at 100 mg/kg. The treatment began about one day after innoculation. The control group died at the same time as the control group in the previous experiment. […] Five of the treated mice died between the 7th and 9th day. The reasons for these deaths are unclear, but it is presumed that they were asphyxiated by intubation.

[3] = Water solubility of free compound and copper chelates; type: physicochemical; settings: stated in the description, no test described
[4] = Terol et al publication; cited from earlier work
[5] = Terol et al publication; species and route not given; cited from earlier work
tumor = settings: literature / other patent (Kochi et al.; U.S. Pat. No. 4,762,705); cited from earlier work

Structure (SMILES) | tumor development compared with control group (mouse melanoma cells [1]) | day of death of last mouse of treated group (mouse melanoma cells [1]; 19 treated mice) [days] | mice in treated group that survived cured (tumor disappeared) (mouse melanoma cells [1]; 19 treated mice) | day on which treated group started dying (mouse melanoma cells [1]; 19 treated mice, control died within an average of twenty-three days) [days] | palpable tumors developed in treated group (mouse melanoma cells [2]; 100 mg/kg, treatment began about one day after inoculation, 20 treated mice) | day of death of the five treated mice (mouse melanoma cells [2]; mouse, in vivo) [days] | treated mice that died between the 7th and 9th day (mouse melanoma cells [2]; mouse, in vivo) | water solubility [3] | effect as a radio-protectant agent [4] | LD50 [5] [mg/kg] | anti-tumor activity (tumor)
CC1(C)SC(c2ccccc2)NC1C(=O)O (stereo not drawn) [5,5-dimethyl-2-phenyl-4-thiazolidine carboxylic acid] | developed slower than the tumors in the control group | 70 | Two | 50 | no palpable tumors | 7 to 9 | Five | water-soluble | absolutely no effect whatsoever | 1200 | –
O=Cc1ccccc1 [benzaldehyde] | – | – | – | – | – | – | – | – | – | – | has been shown to have anti-tumor activity
CC(C)(S)[C@@H](N)C(=O)O [penicillamine, dimethylcysteine] | – | – | – | – | – | – | – | – | – | – | has anti-tumor activity
